Measurements taken from patent publication US12578273B2, “Ph-reversible leuco-BODIPY probe for in situ visualization of extracellular vesicles and their secretion from living cells” (The Chinese University of Hong Kong, priority 2021, dated 2026).

Key:
[1] = pH-dependent spectroscopic properties (pH titration, absorption and fluorescence); format: physicochemical; details: weakly basic conditions (pH of about 7.4); PBS containing 50% ethanol
Method: In each step of pH titration, small volumes (2-10 μL) of HCl at appropriate concentrations (0.1, 10^−2, or 10^−3 M) were pipetted directly into the measurement cell, followed by filling up with 2 mL of 1 μM dye-containing solution [either in a mixture of PBS/ethanol 1:1 (v/v) or 0.5% (v/v) DMSO]. The pH was monitored at 298 K using a digital pH meter (827 pH lab) equipped with a Biotrode (Metrohm, Herisau, Switzerland). Calibration of the instrument was performed with standard aqueous solutions of pH 4, 7, and 9 from Metrohm. Absorption and fluorescence measurements were carried out on an Agilent Cary 5000 spectrophotometer and a Horiba Jobin Yvon spectrometer (Nanolog FL3-2iHR), respectively.
We investigated the spectroscopic properties of the fluorescent probe as a function of pH in phosphate-buffered saline (PBS) containing 50% ethanol by UV-vis spectrophotometry and fluorimetry (FIGS. 21A-21F, 22-23).

[2] = system: A549 cells that express GFP-tagged CD81; assay: Confocal imaging of EVs or precursor EVs (colocalization of BODIPY with GFP-tagged CD81); format: cell-based; details: 30 min
Method: (§1) Pre-seeded in 35-mm confocal dishes (SPL Life Sciences, Pocheon, South Korea), cells were grown to the desired confluence before transfection. The transfection medium, formulated in 1 mL of OptiMEM (Gibco, Waltham, MA), contains 7.5 μL of Lipofectamine 3000 (Invitrogen) and either 2.5 μg/mL GFP-CD81 or EGFP-tubulin-6 plasmids. After incubating the cells with the transfection medium for 4 h, the cells were switched to 2 mL of plasmid-free complete DMEM for 2 d. After that, the transfected cells were incubated with leuco-BODIPY for further confocal imaging.
(§2) Confocal imaging of EVs or precursor EVs To prepare the stock of the probe for our cell-based experiments, BODIPY was pre-dissolved in 100% DMSO (2 mM). After dissolution, the probe predominantly assumes the leuco-BODIPY form, as evidenced by its light-yellow color. Cells that express marker proteins of interest (i.e., GFP-tagged CD81 or EGFP-tagged tubulin-6) were pre-seeded in 35-mm confocal dishes. After removing the culture medium, the transfected cells were incubated with 1 mL of 2 μM leuco-BODIPY [dissolved in phenol red-free DMEM (Gibco) with […] (Invitrogen) for solubilization] for 30 min. The EVs in the medium or precursor EVs inside cells were imaged under a Leica SP8 confocal microscope with a 63× objective. The excitation wavelengths of the GFP-tagged proteins and BODIPY were 488 nm and 575 nm, respectively. The emission wavelengths of the GFP-tagged proteins and BODIPY were 495-525 nm and 585-710 nm, respectively. All images were taken at the same laser settings.
(§3) Then, we seeded HeLa, A549, or HEK293 cells that express GFP-tagged CD81 in a confocal dish and incubated the cells with phenol red-free medium containing 2 μM leuco-BODIPY and 0.1% DMSO for 30 min. Note that this probe is predominantly in its leuco-BODIPY form when dissolved in DMSO, as evidenced by its light-yellow color. We obtained confocal images of the cell-seeded medium without harvesting the EVs or rinsing the cells (FIGS. 2A, 30-31). Representative images of their extracellular space depict granular or spherical pockets of fluorescence from BODIPY (red) amidst a dark background. […] The fluorescent pockets of BODIPY are submicron-sized or micron-sized, larger than the reported sizes of exosomes (50-200 nm).^36 As the resolution limit of confocal microscopy may overestimate the size of EVs, we isolated EVs from the cell-seeded medium for nanoparticle tracking analysis (NTA; FIG. 2B). The hydrodynamic size distribution of the EVs lies between about 50 nm and about 400 nm, with peak EV diameters of 151 nm, 104 nm, and 156 nm for HeLa, A549, and HEK293 cells, respectively. As these peak EV sizes corroborate the typical sizes of exosomes, we conclude that the EVs detected are mostly exosomes, with a smaller portion of larger ectosomes, clustered exosomes, or extracellular MVBs (FIGS. 4A-4C).
(§4) Next, we attempted to use our probe for imaging intracellular precursor EVs before their secretion to the extracellular milieu. Again, we added leuco-BODIPY (dissolved in DMSO) to culture medium seeded with HeLa, A549, or HEK293 cells that express GFP-tagged CD81 for 30 min (FIG. 3). […] Contrarily, the overlap between BODIPY and GFP-CD81 fluorescence in the cytoplasm is moderate, characterized by Pearson's colocalization coefficients of 0.72, 0.66, and 0.63 for HeLa, A549, and HEK293 cells, respectively. As a negative control, we captured confocal images of the three cell lines but without adding leuco-BODIPY to the medium.

[3] = system: HEK293 cells that express GFP-tagged CD81; assay: as above; format: cell-based; details: 30 min
Method: as §1, §2, §3, §4

[4] = system: HeLa cells that express GFP-tagged CD81; assay: as above; format: cell-based; details: 30 min
Method: as §1, §2, §3, §4

HeLa cells = assay: Effect of probe staining on the secretion of EVs (nanoparticle tracking analysis); format: cell-based; details: 5 μM leuco-BODIPY, 3 h, NTA
Method: FIGS. 32A-32B Effect of probe staining on the secretion of EVs. HeLa cells were incubated with (FIG. 32A) complete DMEM or (FIG. 32B) DMEM containing 5 μM leuco-BODIPY for 3 h. After that, the EV sample was isolated from the cells for nanoparticle tracking analysis (NTA).
EV samples were diluted with filtered PBS (0.2 μm) to obtain an EV concentration of 10^8-10^9 particles/mL. For each sample, four 1-min videos were recorded when introduced about 1 mL of the conditioned medium to the NTA system (Malvern NanoSight NS500, Malvern, UK). The temperature was kept at about 18° C. Images in each video were analyzed with NTA 3.1 Build 3.1.45 software (Malvern). Auto settings were used for blur size and maximum jump distance. 2000 frames were examined per sample. […]
Moreover, we incubated the three cell types with our probe for 30 min, isolated the EVs secreted to the culture medium, centrifuged the collected medium to remove any dye-stained cell fragments, and confirmed the detection of fluorescence in the isolated EVs (Table 1). By contrast, for the EVs isolated from the same cell types under the same culture conditions but without treatment by our probe, the fluorescence detected was at the background level of blank culture medium.

[5] = extracellular space (CD81-enriched exosomes), 2 μM, no rinsing

For CCOC(=O)C(=Cc1ccc2n1[B-](F)(F)n1c(C=C(C(=O)OCC)C(=O)OCC)ccc1C2(OC)c1ccncc1)C(=O)OCC [leuco-BODIPY], the new absorption band [1] was about 360 nm, the “Pearson's colocalization coefficient between BODIPY and CD81-GFP fluorescence” value [2, 5] was 0.85 and the “Pearson's colocalization coefficient between BODIPY and GFP-CD81 fluorescence” value ([2]; in the cytoplasm) was 0.66. For the same compound, the “Pearson's colocalization coefficient between BODIPY and GFP-CD81 fluorescence” value ([2]; on the pseudopodia) was 0.90, the “Pearson's colocalization coefficient between BODIPY and CD81-GFP fluorescence” value [3, 5] was 0.94 and the “Pearson's colocalization coefficient between BODIPY and GFP-CD81 fluorescence” value ([3]; in the cytoplasm) was 0.63. The “Pearson's colocalization coefficient between BODIPY and GFP-CD81 fluorescence” value ([3]; on the pseudopodia) was 0.86, the “Pearson's colocalization coefficient between BODIPY and CD81-GFP fluorescence” value [4, 5] was 0.92 and the “Pearson's colocalization coefficient between BODIPY and GFP-CD81 fluorescence” value ([4]; in the cytoplasm) was 0.72. For the same compound, the “Pearson's colocalization coefficient between BODIPY and GFP-CD81 fluorescence” value ([4]; on the pseudopodia) was 0.94 and the “effect on EV secretion (size distribution of EVs from dye-stained vs unstained cells)” value (HeLa cells) was “limited effect”.
